Laboratory results published in ChEMBL document CHEMBL1129670, “Synthesis and structure-activity relationships of N-propyl-N-(4-pyridinyl)-1H-indol-1-amine (besipirdine) and related analogs as potential therapeutic agents for Alzheimer's disease” (J Med Chem, 1996).
pIC50: −log10 of the molar value.

Columns and labels:
Mus musculus [1] = assay: Antagonistic activity against Scopolamine induced behavioral deficits in mice at dose 0.16 mg/kg sc; assay type: functional; settings: route subcutaneous
[2] = target: Muscarinic acetylcholine receptor; assay type: cell membranes, Membrane
Description: Inhibition of [3H]quinuclidinyl benzilate (QNB) binding from rat forebrain membranes in the absence of Zn

[3] = target: Sodium-dependent noradrenaline transporter (Homo sapiens, UniProt P23975)
Description: Inhibitory activity against norepinephrine (NE) uptake in rat whole brain synaptosome preparation

Mus musculus [4] = species on record: Mus musculus; assay: animal or person
Description: Effective dose against administration in mice

Mus musculus [5] = species on record: Mus musculus; settings: dose 0.63 mg/kg; route subcutaneous
Description: Antagonistic activity against Scopolamine induced behavioral deficits in mice at dose 0.63 mg/kg sc

Mus musculus [6] = species on record: Mus musculus; assay: Antagonistic activity against Scopolamine induced behavioral deficits in mice; 2/6; assay type: functional
[7] = target: Muscarinic acetylcholine receptor; assay type: cell membranes, Membrane; remark: listed apart in the source
Description: Inhibition of [3H]quinuclidinyl benzilate (QNB) binding from rat forebrain membranes in the presence of Zn

[8] = target: T1, Adrenergic receptor alpha-2 (Rattus norvegicus, UniProt P22086+P19328+P22909); assay: Inhibitory activity against [3H]clonidine binding to Alpha-2 adrenergic receptor in rat cortex
T1 sequence (P22086 whole entry): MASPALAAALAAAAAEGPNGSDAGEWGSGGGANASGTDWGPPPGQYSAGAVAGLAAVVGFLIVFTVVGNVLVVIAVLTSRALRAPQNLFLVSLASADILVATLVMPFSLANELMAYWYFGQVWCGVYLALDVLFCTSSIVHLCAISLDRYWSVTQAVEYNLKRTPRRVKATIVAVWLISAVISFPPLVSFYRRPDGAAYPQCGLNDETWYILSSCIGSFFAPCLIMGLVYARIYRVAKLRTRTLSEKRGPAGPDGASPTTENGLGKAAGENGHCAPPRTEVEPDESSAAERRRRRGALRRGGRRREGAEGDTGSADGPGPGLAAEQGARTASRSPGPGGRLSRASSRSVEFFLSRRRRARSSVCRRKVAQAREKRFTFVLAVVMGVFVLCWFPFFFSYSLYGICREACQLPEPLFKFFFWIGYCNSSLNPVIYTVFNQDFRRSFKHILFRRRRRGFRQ
T1 sequence (P19328 whole entry): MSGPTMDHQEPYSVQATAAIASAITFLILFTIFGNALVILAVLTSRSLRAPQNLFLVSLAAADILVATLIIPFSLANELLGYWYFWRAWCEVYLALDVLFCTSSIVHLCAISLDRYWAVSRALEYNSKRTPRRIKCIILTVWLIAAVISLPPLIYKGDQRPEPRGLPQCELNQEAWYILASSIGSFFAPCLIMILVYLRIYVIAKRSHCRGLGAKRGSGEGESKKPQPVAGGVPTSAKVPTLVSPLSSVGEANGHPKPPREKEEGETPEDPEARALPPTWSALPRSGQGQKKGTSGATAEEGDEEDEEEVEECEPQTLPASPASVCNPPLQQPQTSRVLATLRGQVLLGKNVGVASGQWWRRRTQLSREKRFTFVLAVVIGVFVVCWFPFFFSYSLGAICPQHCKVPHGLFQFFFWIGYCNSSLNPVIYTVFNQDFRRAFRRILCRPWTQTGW
T1 sequence (P22909 whole entry): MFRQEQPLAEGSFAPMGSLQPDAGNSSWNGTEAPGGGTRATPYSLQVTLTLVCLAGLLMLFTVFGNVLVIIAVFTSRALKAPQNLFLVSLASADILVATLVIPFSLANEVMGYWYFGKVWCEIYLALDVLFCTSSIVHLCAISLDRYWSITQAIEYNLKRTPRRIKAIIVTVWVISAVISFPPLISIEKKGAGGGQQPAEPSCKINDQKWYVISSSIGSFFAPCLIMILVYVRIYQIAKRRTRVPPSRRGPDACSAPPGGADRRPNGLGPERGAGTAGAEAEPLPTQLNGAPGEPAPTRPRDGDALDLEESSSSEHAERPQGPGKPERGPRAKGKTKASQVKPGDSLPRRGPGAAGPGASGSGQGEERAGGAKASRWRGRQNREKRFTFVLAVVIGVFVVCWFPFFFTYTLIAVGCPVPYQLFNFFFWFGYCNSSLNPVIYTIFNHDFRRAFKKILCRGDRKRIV

Mus musculus [9] = assay: Antagonistic activity against Scopolamine induced behavioral deficits in mice at dose […] sc; assay type: functional; settings: route subcutaneous
Mus musculus [10] = assay: Antagonistic activity against Scopolamine induced behavioral deficits in mice at dose 0.04 mg/kg sc; assay type: functional; settings: route subcutaneous
Mus musculus [11] = species on record: Mus musculus; assay: Antagonistic activity against Scopolamine induced behavioral deficits in mice; 2/10; assay type: functional
Acetylcholinesterase = target: T2, Acetylcholinesterase (Rattus norvegicus, UniProt P37136)
T2 sequence (P37136 whole entry): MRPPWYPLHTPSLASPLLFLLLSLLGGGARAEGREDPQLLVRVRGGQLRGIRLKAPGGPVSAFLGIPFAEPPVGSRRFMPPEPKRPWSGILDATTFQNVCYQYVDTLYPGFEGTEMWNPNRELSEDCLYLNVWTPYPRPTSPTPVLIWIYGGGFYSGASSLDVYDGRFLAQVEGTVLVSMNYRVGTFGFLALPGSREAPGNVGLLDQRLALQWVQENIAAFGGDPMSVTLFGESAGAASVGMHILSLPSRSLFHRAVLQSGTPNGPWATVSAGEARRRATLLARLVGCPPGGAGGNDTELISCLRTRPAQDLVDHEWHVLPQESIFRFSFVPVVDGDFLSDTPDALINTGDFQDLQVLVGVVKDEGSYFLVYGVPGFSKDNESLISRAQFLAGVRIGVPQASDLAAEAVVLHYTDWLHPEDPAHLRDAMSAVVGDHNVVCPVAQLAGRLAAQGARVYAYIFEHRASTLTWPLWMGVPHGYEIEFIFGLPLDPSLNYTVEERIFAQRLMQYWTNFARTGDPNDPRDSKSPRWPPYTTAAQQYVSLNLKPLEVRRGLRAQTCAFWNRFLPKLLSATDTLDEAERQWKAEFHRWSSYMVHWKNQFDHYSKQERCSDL
Description: Inhibitory activity against acetylcholinesterase in rat striatal preparation

Mus musculus [12] = assay: Antagonistic activity against Scopolamine induced behavioral deficits in mice at dose 10 mg/kg sc; assay type: functional; settings: route subcutaneous
Mus musculus [13] = assay: Antagonistic activity against Scopolamine induced behavioral deficits in mice at dose 1.25 mg/kg sc; assay type: functional; settings: route subcutaneous
[14] = target: T3, Adrenergic receptor alpha-1 (Rattus norvegicus, UniProt P15823+P23944+P43140); assay: Inhibitory activity against [3H]WB-4101 binding to Alpha-1 adrenergic receptor in rat whole brain membrane; assay type: cell membranes
T3 sequence (P15823 whole entry): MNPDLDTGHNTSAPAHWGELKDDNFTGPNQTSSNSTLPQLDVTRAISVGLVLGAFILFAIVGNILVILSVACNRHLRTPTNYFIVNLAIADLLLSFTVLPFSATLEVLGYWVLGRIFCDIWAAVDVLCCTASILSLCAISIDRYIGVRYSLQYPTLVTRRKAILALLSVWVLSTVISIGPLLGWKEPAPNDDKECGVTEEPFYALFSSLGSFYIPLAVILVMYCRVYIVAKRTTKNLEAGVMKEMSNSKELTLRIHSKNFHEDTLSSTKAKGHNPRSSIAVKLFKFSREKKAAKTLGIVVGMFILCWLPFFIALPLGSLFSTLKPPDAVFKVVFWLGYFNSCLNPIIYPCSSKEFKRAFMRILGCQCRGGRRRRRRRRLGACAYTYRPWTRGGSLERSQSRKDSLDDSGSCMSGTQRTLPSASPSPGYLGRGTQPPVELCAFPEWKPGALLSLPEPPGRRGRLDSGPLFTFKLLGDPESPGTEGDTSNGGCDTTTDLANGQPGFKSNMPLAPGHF
T3 sequence (P23944 whole entry): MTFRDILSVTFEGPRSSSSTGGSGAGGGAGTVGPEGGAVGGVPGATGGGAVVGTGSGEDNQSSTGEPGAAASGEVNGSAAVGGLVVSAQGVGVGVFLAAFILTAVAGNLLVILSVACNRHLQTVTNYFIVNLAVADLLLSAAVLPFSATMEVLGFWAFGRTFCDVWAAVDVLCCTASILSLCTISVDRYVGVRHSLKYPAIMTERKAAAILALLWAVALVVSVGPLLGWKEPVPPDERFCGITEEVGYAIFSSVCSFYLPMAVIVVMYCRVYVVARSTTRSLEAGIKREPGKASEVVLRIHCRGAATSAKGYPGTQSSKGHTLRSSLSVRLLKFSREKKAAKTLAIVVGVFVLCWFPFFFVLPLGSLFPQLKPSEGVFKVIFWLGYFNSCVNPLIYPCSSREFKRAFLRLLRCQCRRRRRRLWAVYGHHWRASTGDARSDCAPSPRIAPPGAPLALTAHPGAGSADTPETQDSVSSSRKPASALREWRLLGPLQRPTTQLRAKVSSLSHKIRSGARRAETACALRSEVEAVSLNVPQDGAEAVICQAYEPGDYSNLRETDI
T3 sequence (P43140 whole entry): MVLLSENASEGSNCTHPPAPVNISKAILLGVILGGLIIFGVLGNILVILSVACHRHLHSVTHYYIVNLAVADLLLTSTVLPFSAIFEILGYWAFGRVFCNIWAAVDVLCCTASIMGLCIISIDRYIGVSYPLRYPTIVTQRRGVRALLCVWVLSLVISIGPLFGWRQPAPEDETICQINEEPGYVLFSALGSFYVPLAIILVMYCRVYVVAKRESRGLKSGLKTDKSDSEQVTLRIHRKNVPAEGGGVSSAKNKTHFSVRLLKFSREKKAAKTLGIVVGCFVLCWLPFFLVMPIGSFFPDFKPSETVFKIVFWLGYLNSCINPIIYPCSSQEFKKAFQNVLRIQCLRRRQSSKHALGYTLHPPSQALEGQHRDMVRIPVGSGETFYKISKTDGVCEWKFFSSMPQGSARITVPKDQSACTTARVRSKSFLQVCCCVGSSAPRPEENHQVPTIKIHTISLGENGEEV

Mus musculus [15] = assay: Antagonistic activity against Scopolamine induced behavioral deficits in mice at dose 5.0 mg/kg sc; 2/8; assay type: functional

Chain of Sodium-dependent noradrenaline transporter (P23975 whole entry): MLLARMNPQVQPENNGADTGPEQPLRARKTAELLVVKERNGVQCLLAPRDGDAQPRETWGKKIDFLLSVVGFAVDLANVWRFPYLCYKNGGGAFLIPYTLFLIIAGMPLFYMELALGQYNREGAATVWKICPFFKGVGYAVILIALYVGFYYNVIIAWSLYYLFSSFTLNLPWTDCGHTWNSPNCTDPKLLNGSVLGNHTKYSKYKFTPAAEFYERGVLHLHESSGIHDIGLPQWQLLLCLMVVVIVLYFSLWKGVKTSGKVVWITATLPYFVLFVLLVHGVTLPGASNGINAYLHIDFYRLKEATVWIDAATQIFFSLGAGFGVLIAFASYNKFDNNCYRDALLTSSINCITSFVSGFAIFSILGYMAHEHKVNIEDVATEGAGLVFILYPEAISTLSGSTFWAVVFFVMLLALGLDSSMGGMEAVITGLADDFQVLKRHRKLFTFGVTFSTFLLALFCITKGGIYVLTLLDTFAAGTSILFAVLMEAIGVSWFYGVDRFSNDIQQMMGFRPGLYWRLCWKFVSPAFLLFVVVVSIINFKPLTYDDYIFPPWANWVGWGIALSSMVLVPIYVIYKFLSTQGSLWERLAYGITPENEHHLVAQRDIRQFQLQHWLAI

Compound	Response (Mus musculus [1])	IC50 [2]	pIC50 [3]	ED50 (Mus musculus [4])	Response (Mus musculus [5])	Antagonism (Mus musculus [6])	IC50 [7]	IC50 [8]	Response (Mus musculus [9])	Response (Mus musculus [10])	Antagonism (Mus musculus [11])	pIC50 (Acetylcholinesterase)	Response (Mus musculus [12])	Response (Mus musculus [13])	IC50 [14]	Antagonism (Mus musculus [15])
CCCN(c1[nH]cnc2ncnc1-2)n1ccc2ccccc21	20%	> 300 µM	4.92	> 20 mg/kg	20%	2	58 µM									
CCCN(c1ccncc1)n1cc(C)c2ccccc21		19 µM	5.89	1.8 mg/kg			4.5 µM	2.5 µM	20%	22%	2	4.54				
CCCN(c1ccncc1)n1c2ccccc2c2ccccc21.O=C(O)/C=C/C(=O)O		5.5 µM	5.62	1.5 mg/kg			0.5 µM	0.54 µM				< 4.00	24%	20%	3.2 µM	2
